Reference: patent publication US11918581B2, “Combination therapy comprising JAK pathway inhibitor and rock inhibitor” (Incyte Corporation, priority 2021, dated 2024)

Assays:
[1] = biological target: human JAK2 (a.a. 828-1132) (Homo sapiens (Human), UniProt O60674); test: In vitro JAK kinase assay (HTRF), JAK2; assay type: biochemical; conditions: JAK2/JAK1 IC50 ratio, 1 mM ATP
Method: (§1) The catalytic activity of JAK1, JAK2, or JAK3 was assayed by measuring the phosphorylation of a biotinylated peptide. The phosphorylated peptide was detected by homogenous time resolved fluorescence (HTRF). […] Reactions are carried out at room temperature for 1 hour and then stopped with 20 μL 45 mM EDTA, 300 nM SA-APC, 6 nM Eu-Py20 in assay buffer (Perkin Elmer, Boston, MA). Binding to the Europium labeled antibody takes place for 40 minutes and HTRF signal was measured on a Fusion plate reader (Perkin Elmer, Boston, MA).

[2] = biological target: human JAK1 (a.a. 837-1142) (Homo sapiens, UniProt P23458); test: In vitro JAK kinase assay (HTRF), JAK1; assay type: biochemical; conditions: 1 mM ATP
Method: as §1

human JAK2 (a.a. 828-1132), sequence (O60674 828-1132): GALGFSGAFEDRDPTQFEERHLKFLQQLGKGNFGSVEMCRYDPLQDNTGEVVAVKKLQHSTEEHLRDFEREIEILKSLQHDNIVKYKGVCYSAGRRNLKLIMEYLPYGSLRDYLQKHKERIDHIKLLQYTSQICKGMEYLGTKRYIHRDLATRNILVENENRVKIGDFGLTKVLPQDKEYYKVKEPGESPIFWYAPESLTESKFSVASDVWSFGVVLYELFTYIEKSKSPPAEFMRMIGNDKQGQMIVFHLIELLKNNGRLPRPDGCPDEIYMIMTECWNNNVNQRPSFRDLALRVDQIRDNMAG

Row | JAK2/JAK1 [1] | IC50 [2] | SMILES
1 | >10 | < 10 nM | N#CCC(C1CCN(c2cccc(Cl)n2)C1)n1cc(-c2ncnc3[nH]ccc23)cn1 (single isomer, unassigned) [Compound 6, 3-[1-(6-chloropyridin-2-yl)pyrrolidin-3-yl]-3-[4-(7H-pyrrolo[2,3-d]pyrimidin-4-yl)-1H-pyrazol-1-yl]propanenitrile]
2 | >10 | < 10 nM | N#CCC1(n2cc(-c3ncnc4[nH]ccc34)cn2)CN(C2CCN(C(=O)Nc3ccc(F)cc3C(F)(F)F)CC2)C1 [Compound 2, 4-{3-(Cyanomethyl)-3-[4-(7H-pyrrolo[2,3-d]pyrimidin-4-yl)-1H-pyrazol-1-yl]azetidin-1-yl}-N-[4-fluoro-2-(trifluoromethyl)phenyl] piperidine-1-carboxamide]
3 | >10 | < 10 nM | N#CCC1(n2cc(-c3ncnc4[nH]ccc34)cn2)CN(C2CCN(C(=O)c3ccnc(C(F)(F)F)n3)CC2)C1 [Compound 3, [3-[4-(7H-pyrrolo[2,3-d]pyrimidin-4-yl)-1H-pyrazol-1-yl]-1-(1-{[2-(trifluoromethyl)pyrimidin-4-yl]carbonyl}piperidin-4-yl)azetidin-3-yl]acetonitrile]
4 | >10 | < 100 nM | C[C@@H](O)c1nc2cnc3ccsc3c2n1[C@H]1CC[C@H](CC#N)OC1 [Compound 5, ((2R,5S)-5-{2-[(1R)-1-hydroxyethyl]-1H-imidazo[4,5-d]thieno[3,2-b]pyridin-1-yl}tetrahydro-2H-pyran-2-yl)acetonitrile]
5 | >10 | < 10 nM | N#CCC(C1CCN(c2nc3cccnc3o2)C1)n1cc(-c2ncnc3[nH]ccc23)cn1 (stereo not drawn) [Compound 7, 3-(1-[1,3]oxazolo[5,4-b]pyridin-2-ylpyrrolidin-3-yl)-3-[4-(7H-pyrrolo[2,3-d]pyrimidin-4-yl)-1H-pyrazol-1-yl]propanenitrile]
6 | >10 | < 10 nM | N#CCC(CN1CCN(C(=O)c2ccc(C#N)cc2F)CC1)n1cc(-c2ncnc3[nH]ccc23)cn1 (stereo not drawn) [Compound 8, 4-[(4-{3-cyano-2-[4-(7H-pyrrolo[2,3-d]pyrimidin-4-yl)-1H-pyrazol-1-yl]propyl}piperazin-1-yl)carbonyl]-3-fluorobenzonitrile]
7 | >10 | < 10 nM | N#CCC(CN1CCN(C(=O)c2ccc(C#N)cc2F)CC1)n1ccc(-c2ncnc3[nH]ccc23)c1 (stereo not drawn) [Compound 9, 4-[(4-{3-cyano-2-[3-(7H-pyrrolo[2,3-d]pyrimidin-4-yl)-1H-pyrrol-1-yl]propyl}piperazin-1-yl)carbonyl]-3-fluorobenzonitrile]
8 | >10 | < 10 nM | N#CC[C@]1(n2cc(-c3ncnc4[nH]ccc34)cn2)C[C@H](N2CCN(C(=O)c3ccnc(C(F)(F)F)n3)CC2)C1 [Compound 10, [trans-1-[4-(7H-pyrrolo[2,3-d]pyrimidin-4-yl)-1H-pyrazol-1-yl]-3-(4-{[2-(trifluoromethyl)pyrimidin-4-yl]carbonyl}piperazin-1-yl)cyclobutyl]acetonitrile]
9 | >10 | < 10 nM | N#CC[C@]1(n2cc(-c3ncnc4[nH]ccc34)cn2)C[C@H](N2CCC(Oc3cc(CN4CC(O)C4)cc(C(F)(F)F)n3)CC2)C1 [Compound 11, {trans-3-(4-{[4-[(3-hydroxyazetidin-1-yl)methyl]-6-(trifluoromethyl)pyridin-2-yl]oxy}piperidin-1-yl)-1-[4-(7H-pyrrolo[2,3-d]pyrimidin-4-yl)-1H-pyrazol-1-yl]cyclobutyl}acetonitrile]
10 | >10 | < 10 nM | N#CC[C@]1(n2cc(-c3ncnc4[nH]ccc34)cn2)C[C@H](N2CCC(Oc3cc(CN4CCC[C@H]4CO)cc(C(F)(F)F)n3)CC2)C1 [Compound 12, {trans-3-(4-{[4-{[(2S)-2-(hydroxymethyl)pyrroli-din-1-yl]methyl}-6-(trifluoromethyl)pyridin-2-yl]oxy}piperidin-1-yl)-1-[4-(7H-pyrrolo[2,3-d]pyrimidin-4-yl)-1H-pyrazol-1-yl]cyclobutyl}acetonitrile]
11 | >10 | < 10 nM | N#CC[C@]1(n2cc(-c3ncnc4[nH]ccc34)cn2)C[C@H](N2CCC(Oc3cc(CN4CCC[C@@H]4CO)cc(C(F)(F)F)n3)CC2)C1 [Compound 13, {trans-3-(4-{[4-{[(2R)-2-(hydroxymethyl)pyrroli-din-1-yl]methyl}-6-(trifluoromethyl)pyridin-2-yl]oxy}piperidin-1-yl)-1-[4-(7H-pyrrolo[2,3-d]pyrimidin-4-yl)-1H-pyrazol-1-yl]cyclobutyl}acetonitrile]
12 | >10 | < 10 nM | C[C@H](NC(=O)c1cc(F)c(N2CC(CC#N)(n3cc(-c4ncnc5[nH]ccc45)cn3)C2)cc1F)C(F)(F)F [Compound 16, 4-{3-(cyanomethyl)-3-[4-(7H-pyrrolo[2,3-d]pyrimidin-4-yl)-1H-pyrazol-1-yl]azetidin-1-yl}-2,5-difluoro-N-[(1S)-2,2,2-trifluoro-1-methylethyl]benzamide]
13 | >10 | < 10 nM | N#CCC1(n2cc(-c3ncnc4[nH]ccc34)cn2)CN([C@H]2CC[C@@H](Oc3cc(CCO)nc(C(F)(F)F)n3)CC2)C1 [Compound 18, {1-(cis-4-{[6-(2-hydroxyethyl)-2-(trifluoromethyl)pyrimidin-4-yl]oxy}cyclohexyl)-3-[4-(7H-pyrrolo[2,3-d]pyrimidin-4-yl)-1H-pyrazol-1-yl]azetidin-3-yl}acetonitrile]
14 | >10 | < 10 nM | CCNCc1cc(O[C@H]2CC[C@@H](N3CC(CC#N)(n4cc(-c5ncnc6[nH]ccc56)cn4)C3)CC2)nc(C(F)(F)F)c1 [Compound 19, {1-(cis-4-{[4-[(ethylamino)methyl]-6-(trifluoromethyl)pyridin-2-yl]oxy}cyclohexyl)-3-[4-(7H-pyrrolo[2,3-d]pyrimidin-4-yl)-1H-pyrazol-1-yl]azetidin-3-yl}acetonitrile]
15 | >10 | < 10 nM | CC(C)(O)c1cc(O[C@H]2CC[C@@H](N3CC(CC#N)(n4cc(-c5ncnc6[nH]ccc56)cn4)C3)CC2)nc(C(F)(F)F)c1 [Compound 20, {1-(cis-4-{[4-(1-hydroxy-1-methylethyl)-6-(trifluoromethyl)pyridin-2-yl]oxy}cyclohexyl)-3-[4-(7H-pyrrolo[2,3-d]pyrimidin-4-yl)-1H-pyrazol-1-yl]azetidin-3-yl}acetonitrile]
16 | >10 | < 10 nM | N#CCC1(n2cc(-c3ncnc4[nH]ccc34)cn2)CN([C@H]2CC[C@@H](Oc3cc(CN4CC[C@@H](O)C4)cc(C(F)(F)F)n3)CC2)C1 [Compound 21, {1-(cis-4-{[4-{[(3R)-3-hydroxypyrrolidin-1-yl]methyl}-6-(trifluoromethyl)pyridin-2-yl]oxy}cyclohexyl)-3-[4-(7H-pyrrolo[2,3-d]pyrimidin-4-yl)-1H-pyrazol-1-yl]azetidin-3-yl}acetonitrile]
17 | >10 | < 10 nM | N#CCC1(n2cc(-c3ncnc4[nH]ccc34)cn2)CN([C@H]2CC[C@@H](Oc3cc(CN4CC[C@H](O)C4)cc(C(F)(F)F)n3)CC2)C1 [Compound 22, {1-(cis-4-{[4-{[(3S)-3-hydroxypyrrolidin-1-yl]methyl}-6-(trifluoromethyl)pyridin-2-yl]oxy}cyclohexyl)-3-[4-(7H-pyrrolo[2,3-d]pyrimidin-4-yl)-1H-pyrazol-1-yl]azetidin-3-yl}acetonitrile]
18 | >10 | < 10 nM | C[C@@H](CO)NCc1cc(OC2CCN([C@H]3C[C@](CC#N)(n4cc(-c5ncnc6[nH]ccc56)cn4)C3)CC2)nc(C(F)(F)F)c1 [Compound 23, {trans-3-(4-{[4-({[(1S)-2-hydroxy-1-methylethyl]amino}methyl)-6-(trifluoromethyl)pyridin-2-yl]oxy}piperidin-1-yl)-1-[4-(7H-pyrrolo[2,3-d]pyrimidin-4-yl)-1H-pyrazol-1-yl]cyclobutyl}acetonitrile]
19 | >10 | < 10 nM | C[C@@H](O)CNCc1cc(OC2CCN([C@H]3C[C@](CC#N)(n4cc(-c5ncnc6[nH]ccc56)cn4)C3)CC2)nc(C(F)(F)F)c1 [Compound 24, {trans-3-(4-{[4-({[(2R)-2-hydroxypropyl]amino}methyl)-6-(trifluoromethyl)pyridin-2-yl]oxy}piperidin-1-yl)-1-[4-(7H-pyrrolo[2,3-d]pyrimidin-4-yl)-1H-pyrazol-1-yl]cyclobutyl}acetonitrile]
20 | >10 | < 10 nM | C[C@H](O)CNCc1cc(OC2CCN([C@H]3C[C@](CC#N)(n4cc(-c5ncnc6[nH]ccc56)cn4)C3)CC2)nc(C(F)(F)F)c1 [Compound 25, {trans-3-(4-{[4-({[(2S)-2-hydroxypropyl]amino}methyl)-6-(trifluoromethyl)pyridin-2-yl]oxy}piperidin-1-yl)-1-[4-(7H-pyrrolo[2,3-d]pyrimidin-4-yl)-1H-pyrazol-1-yl]cyclobutyl}acetonitrile]
21 | >10 | < 10 nM | N#CC[C@]1(n2cc(-c3ncnc4[nH]ccc34)cn2)C[C@H](N2CCC(Oc3cc(CCO)cc(C(F)(F)F)n3)CC2)C1 [Compound 26, {trans-3-(4-{[4-(2-hydroxyethyl)-6-(trifluoromethyl)pyridin-2-yl]oxy}piperidin-1-yl)-1-[4-(7H-pyrrolo[2,3-d]pyrimidin-4-yl)-1H-pyrazol-1-yl]cyclobutyl}acetonitrile]
